Laboratory results as given in ChEMBL document CHEMBL1139379, “Design, structure-activity relationships and in vivo characterization of 4-amino-3-benzimidazol-2-ylhydroquinolin-2-ones: a novel class of receptor tyrosine kinase inhibitors” (J Med Chem, 2009).
Values belong to the compound of their own block, whether it stands above or below them.

Assays:
[1] = target: Platelet-derived growth factor receptor beta (Homo sapiens, UniProt P09619); test: Inhibition of human recombinant PDGFRbeta
[2] = target: Fibroblast growth factor receptor 1 (Homo sapiens, UniProt P11362); test: Inhibition of human recombinant FGFR1
[3] = target: Vascular endothelial growth factor receptor 2 (Homo sapiens, UniProt P35968)
[4] = Inhibition of VEGF-mediated proliferation of HMVEC after 72 hrs; assay type: functional, cell-based; settings: Homo sapiens
[5] = test system: MV4-11; test: Antitumor activity against FLT3 ITD expressing human MV4-11 cells xenografted SCID-NOD mouse assessed as tumor growth inhibition at 1 mg/kg/day, po; assay type: functional; settings: read-out: TGI
[6] = Antitumor activity against VEGFR expressing human KM12L4A cells xenografted nude mouse assessed as tumor growth inhibition at 10 mg/kg/day, po; assay type: functional; settings: read-out: TGI
[7] = Half life in mouse at 5 mg/kg, iv; assay type: ADME, organism-based; set-up: dose 5 mg/kg, route intravenous; settings: in vivo
[8] = test system: DU-145; test: Antitumor activity against PDGFRbeta expressing human DU145 cells xenografted nude mouse assessed as tumor growth inhibition at 30 mg/kg/day, po; assay type: functional; settings: read-out: TGI
[9] = test system: DU-145; test: Antitumor activity against VEGFR expressing human DU145 cells xenografted nude mouse assessed as tumor growth inhibition at 10 mg/kg/day, po; assay type: functional; settings: read-out: TGI
[10] = Clearance in mouse at 5 mg/kg, iv; assay type: ADME, organism-based; set-up: dose 5 mg/kg, route intravenous; settings: in vivo
[11] = Antitumor activity against human KM12L4A cells xenografted nude mouse; assay type: functional
[12] = test system: MV4-11; test: Antitumor activity against human MV4-11 cells xenografted SCID-NOD mouse; assay type: functional
[13] = test system: MV4-11; test: Antitumor activity against VEGFR expressing human MV4-11 cells xenografted SCID-NOD mouse assessed as tumor growth inhibition at 5 mg/kg/day, po; assay type: functional; settings: read-out: TGI
[14] = test system: Mus musculus; test: Antiangiogenic activity in BDF1 mouse Matrigel model assessed as inhibition of bFGF-mediated angiogenesis at 3 mg/kg, po for 8 days by colorimetric assay; assay type: functional; set-up: scale not given: the % may be the effect or the level left
[15] = AUC in rat at 20 mg/kg, po; assay type: ADME, organism-based; set-up: dose 20 mg/kg, route oral; settings: plasma
[16] = AUC in mouse at 20 mg/kg, po; assay type: ADME, organism-based; set-up: dose 20 mg/kg, route oral; settings: plasma
[17] = test system: DU-145; test: Antitumor activity against human DU145 cells xenografted nude mouse; assay type: functional
[18] = test system: MV4-11; test: Antitumor activity against cKit expressing human MV4-11 cells xenografted SCID-NOD mouse assessed as tumor growth inhibition at 10 mg/kg/day, po; assay type: functional; settings: read-out: TGI
[19] = Antitumor activity against PDGFRbeta expressing human KM12L4A cells xenografted nude mouse assessed as tumor growth inhibition at 100 mg/kg/day, po; assay type: functional; settings: read-out: TGI
[20] = Half life in rat at 5 mg/kg, iv; assay type: ADME, organism-based; set-up: dose 5 mg/kg, route intravenous; settings: in vivo
[21] = Clearance in rat at 5 mg/kg, iv; assay type: ADME, organism-based; set-up: dose 5 mg/kg, route intravenous; settings: in vivo
[22] = Cmax in mouse at 20 mg/kg, po; assay type: ADME, organism-based; set-up: dose 20 mg/kg, route oral; settings: in vivo
[23] = Cmax in rat at 20 mg/kg, po; assay type: ADME, organism-based; set-up: dose 20 mg/kg, route oral; settings: in vivo
[24] = species on record: Mus musculus; test: Antiangiogenic activity in BDF1 mouse Matrigel model assessed as inhibition of bFGF-mediated angiogenesis; assay type: functional
[25] = test system: MV4-11; test: Antitumor activity against PDGFRbeta expressing human MV4-11 cells xenografted SCID-NOD mouse assessed as tumor growth inhibition at 30 mg/kg/day, po; assay type: functional; settings: read-out: TGI
[26] = test system: DU-145; test: Antitumor activity against FGFR expressing human DU145 cells xenografted nude mouse assessed as tumor growth inhibition at 100 mg/kg/day, po; assay type: functional; settings: read-out: TGI
[27] = Oral bioavailability in mouse at 20 mg/kg; assay type: ADME, organism-based; settings: in vivo
[28] = Antitumor activity against PDGFRbeta expressing human KM12L4A cells xenografted nude mouse assessed as tumor growth inhibition at 30 mg/kg/day, po; assay type: functional; settings: read-out: TGI
[29] = Volume of distribution at steady state in rat at 5 mg/kg, iv; assay type: ADME, organism-based; set-up: dose 5 mg/kg, route intravenous; settings: in vivo, read-out: Vdss
[30] = Volume of distribution at steady state in mouse at 5 mg/kg, iv; assay type: ADME, organism-based; set-up: dose 5 mg/kg, route intravenous; settings: in vivo, read-out: Vdss
[31] = Oral bioavailability in rat at 20 mg/kg; assay type: ADME, organism-based; settings: in vivo

Sequence of Fibroblast growth factor receptor 1 (P11362 whole entry): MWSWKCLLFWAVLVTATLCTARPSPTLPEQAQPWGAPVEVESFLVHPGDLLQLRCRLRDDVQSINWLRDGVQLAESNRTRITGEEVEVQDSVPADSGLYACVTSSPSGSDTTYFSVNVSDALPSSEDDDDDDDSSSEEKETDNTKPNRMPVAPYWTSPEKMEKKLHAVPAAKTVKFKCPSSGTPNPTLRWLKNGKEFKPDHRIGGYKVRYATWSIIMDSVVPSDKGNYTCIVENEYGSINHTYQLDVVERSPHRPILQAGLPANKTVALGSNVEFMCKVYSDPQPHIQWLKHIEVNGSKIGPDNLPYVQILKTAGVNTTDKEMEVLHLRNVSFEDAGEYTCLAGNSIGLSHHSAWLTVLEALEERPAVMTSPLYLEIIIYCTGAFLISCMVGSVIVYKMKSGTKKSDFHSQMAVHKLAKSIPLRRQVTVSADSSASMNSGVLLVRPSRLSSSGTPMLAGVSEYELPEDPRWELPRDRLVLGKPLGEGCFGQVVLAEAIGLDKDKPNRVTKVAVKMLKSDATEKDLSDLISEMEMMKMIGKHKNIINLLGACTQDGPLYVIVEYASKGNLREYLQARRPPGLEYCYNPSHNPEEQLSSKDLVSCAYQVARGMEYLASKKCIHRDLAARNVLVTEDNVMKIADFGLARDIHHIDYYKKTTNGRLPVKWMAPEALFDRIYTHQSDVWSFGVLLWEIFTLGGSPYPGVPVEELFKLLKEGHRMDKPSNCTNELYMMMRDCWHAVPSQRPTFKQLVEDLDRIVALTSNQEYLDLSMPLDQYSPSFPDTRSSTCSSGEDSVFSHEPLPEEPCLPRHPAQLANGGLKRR
Sequence of Platelet-derived growth factor receptor beta (P09619 whole entry): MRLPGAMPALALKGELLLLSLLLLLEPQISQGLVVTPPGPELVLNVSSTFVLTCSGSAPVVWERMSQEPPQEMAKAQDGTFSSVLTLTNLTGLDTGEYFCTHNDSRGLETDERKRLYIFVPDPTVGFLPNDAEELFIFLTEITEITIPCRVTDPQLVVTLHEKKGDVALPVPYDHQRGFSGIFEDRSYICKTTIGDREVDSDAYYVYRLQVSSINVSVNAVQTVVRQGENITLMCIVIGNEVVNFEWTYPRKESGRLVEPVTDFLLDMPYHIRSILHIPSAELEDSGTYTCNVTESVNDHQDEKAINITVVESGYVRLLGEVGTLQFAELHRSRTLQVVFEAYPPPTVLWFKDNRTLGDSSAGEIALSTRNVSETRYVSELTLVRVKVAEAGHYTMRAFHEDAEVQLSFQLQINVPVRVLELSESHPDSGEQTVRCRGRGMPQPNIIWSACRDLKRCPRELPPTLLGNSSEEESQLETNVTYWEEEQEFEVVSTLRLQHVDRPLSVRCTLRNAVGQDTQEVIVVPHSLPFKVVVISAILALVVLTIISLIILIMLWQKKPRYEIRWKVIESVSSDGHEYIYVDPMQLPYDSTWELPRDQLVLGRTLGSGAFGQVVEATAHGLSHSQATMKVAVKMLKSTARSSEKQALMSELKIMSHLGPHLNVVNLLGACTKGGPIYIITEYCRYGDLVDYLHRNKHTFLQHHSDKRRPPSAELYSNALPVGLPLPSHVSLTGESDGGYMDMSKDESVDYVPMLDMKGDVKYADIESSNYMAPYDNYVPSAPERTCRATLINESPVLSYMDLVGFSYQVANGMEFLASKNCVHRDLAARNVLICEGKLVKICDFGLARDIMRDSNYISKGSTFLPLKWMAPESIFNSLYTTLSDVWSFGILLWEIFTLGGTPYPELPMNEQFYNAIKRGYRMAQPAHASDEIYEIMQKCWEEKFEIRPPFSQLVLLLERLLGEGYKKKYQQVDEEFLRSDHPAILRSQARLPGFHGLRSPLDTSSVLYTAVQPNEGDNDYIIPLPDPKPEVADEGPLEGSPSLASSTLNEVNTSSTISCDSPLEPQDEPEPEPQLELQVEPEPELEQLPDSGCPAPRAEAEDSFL
Sequence of Vascular endothelial growth factor receptor 2 (P35968 whole entry): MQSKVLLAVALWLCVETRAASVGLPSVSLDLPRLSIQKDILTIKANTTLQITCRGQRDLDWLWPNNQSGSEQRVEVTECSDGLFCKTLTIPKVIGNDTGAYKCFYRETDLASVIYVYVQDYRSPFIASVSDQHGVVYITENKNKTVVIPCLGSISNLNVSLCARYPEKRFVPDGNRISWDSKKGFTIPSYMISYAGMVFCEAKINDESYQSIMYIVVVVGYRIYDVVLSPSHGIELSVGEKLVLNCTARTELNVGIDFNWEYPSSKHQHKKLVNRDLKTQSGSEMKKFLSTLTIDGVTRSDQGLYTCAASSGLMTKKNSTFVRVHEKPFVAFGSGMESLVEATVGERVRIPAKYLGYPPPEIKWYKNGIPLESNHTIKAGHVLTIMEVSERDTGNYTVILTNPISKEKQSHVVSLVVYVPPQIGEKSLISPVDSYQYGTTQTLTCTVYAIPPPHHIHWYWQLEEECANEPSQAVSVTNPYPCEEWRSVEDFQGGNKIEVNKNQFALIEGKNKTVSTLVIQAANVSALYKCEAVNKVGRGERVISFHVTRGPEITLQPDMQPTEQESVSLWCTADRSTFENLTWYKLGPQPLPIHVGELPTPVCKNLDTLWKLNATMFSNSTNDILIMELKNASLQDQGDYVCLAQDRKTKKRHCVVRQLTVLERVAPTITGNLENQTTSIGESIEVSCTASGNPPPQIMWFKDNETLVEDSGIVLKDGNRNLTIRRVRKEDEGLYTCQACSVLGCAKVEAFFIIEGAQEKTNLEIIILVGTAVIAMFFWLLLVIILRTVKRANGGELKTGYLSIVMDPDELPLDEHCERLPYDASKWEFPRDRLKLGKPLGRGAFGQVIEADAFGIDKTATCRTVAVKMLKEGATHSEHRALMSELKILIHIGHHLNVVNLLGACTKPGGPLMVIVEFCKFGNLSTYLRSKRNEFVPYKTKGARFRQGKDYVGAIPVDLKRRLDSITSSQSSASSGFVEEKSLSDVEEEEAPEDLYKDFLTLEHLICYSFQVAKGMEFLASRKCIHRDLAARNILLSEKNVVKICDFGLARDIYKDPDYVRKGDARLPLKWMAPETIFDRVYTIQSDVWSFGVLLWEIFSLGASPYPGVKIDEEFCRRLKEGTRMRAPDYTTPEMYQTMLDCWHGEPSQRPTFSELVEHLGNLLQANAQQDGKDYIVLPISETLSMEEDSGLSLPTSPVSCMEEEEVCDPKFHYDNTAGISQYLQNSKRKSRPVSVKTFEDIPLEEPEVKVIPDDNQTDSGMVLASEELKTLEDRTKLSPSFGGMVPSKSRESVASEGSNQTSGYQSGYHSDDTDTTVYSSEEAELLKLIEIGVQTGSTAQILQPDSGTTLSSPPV

IC50 [1]: 0.002 µM | IC50 [2]: 0.015 µM | IC50 [3]: 0.053 µM
Structure (SMILES): CNc1cccc2[nH]c(=O)c(-c3nc4ccc(N5CCN(C)CC5)cc4[nH]3)c(N)c12
EC50 [4]: 0.017 µM

IC50 [1]: 0.03 µM | IC50 [2]: 0.08 µM | IC50 [3]: 0.22 µM
Structure (SMILES): Cc1ccc2nc(-c3c(N)c4ccccc4[nH]c3=O)[nH]c2c1
EC50 [4]: 0.064 µM

IC50 [1]: 0.012 µM | IC50 [2]: 0.07 µM | IC50 [3]: 0.21 µM
Structure (SMILES): Cc1cc2nc(-c3c(N)c4ccccc4[nH]c3=O)[nH]c2cc1C
EC50 [4]: 0.15 µM

IC50 [1]: 0.03 µM | IC50 [2]: 0.12 µM | IC50 [3]: 0.22 µM
Structure (SMILES): CNc1c(-c2nc3ccccc3[nH]2)c(=O)[nH]c2ccccc12
EC50 [4]: 0.28 µM

IC50 [1]: 19 µM | IC50 [2]: > 25 µM | IC50 [3]: 5.8 µM
Structure (SMILES): Cn1c(=O)c(-c2nc3ccccc3[nH]2)c(O)c2ccccc21
EC50 [4]: 4.6 µM

IC50 [1]: 0.008 µM | IC50 [2]: 0.024 µM | IC50 [3]: 0.043 µM
Structure (SMILES): CN1CCN(c2ccc3[nH]c(-c4c(N)c5cc(Cl)ccc5[nH]c4=O)nc3c2)CC1
EC50 [4]: 0.039 µM

half-life [7]: 2.7 h | clearance [10]: 42 mL/min/kg | AUC [15]: 5670 ng·h/mL | AUC [16]: 6000 ng·h/mL | half-life [20]: 3.5 h | clearance [21]: 43 mL/min/kg | Cmax [22]: 670 ng/mL | Cmax [23]: 480 ng/mL | bioavailability [27]: 77% | Vd [29]: 13 L/kg | Vd [30]: 12 L/kg | bioavailability [31]: 73%
Structure (SMILES): CN1CCN(c2ccc3nc(-c4c(N)c5c(F)cccc5[nH]c4=O)[nH]c3c2)CC1 [DOVITINIB]
inhibition in vivo at 1 mg/kg/day [5]: 23% | inhibition in vivo at 10 mg/kg/day [6]: 44% | inhibition in vivo at 30 mg/kg/day [8]: 70% | inhibition in vivo at 10 mg/kg/day [9]: 39% | ED50 [11]: 17 mg/kg | minimal effective dose ([11]; read-out: MED): 10 mg/kg | ED50 [12]: 3 mg/kg | minimal effective dose ([12]; read-out: MED): 1 mg/kg | inhibition in vivo at 5 mg/kg/day [13]: 65% | Activity [14]: 54% | ED50 [17]: 23 mg/kg | minimal effective dose ([17]; read-out: MED): 30 mg/kg | inhibition in vivo at 10 mg/kg/day [18]: 92% | inhibition in vivo at 100 mg/kg/day [19]: 95% | ED50 [24]: 3 mg/kg | inhibition in vivo at 30 mg/kg/day [25]: 96% | inhibition in vivo at 100 mg/kg/day [26]: 86% | inhibition in vivo at 30 mg/kg/day [28]: 55% | EC50 [4]: 0.013 µM

The remaining lines, values behind:

Structure (SMILES): CN1CCN(c2ccc3nc(-c4c(N)c5cc(F)ccc5[nH]c4=O)[nH]c3c2)CC1
IC50 [1]: 0.001 µM | IC50 [2]: 0.04 µM | IC50 [3]: 0.078 µM | EC50 [4]: 0.01 µM

Structure (SMILES): CN1CCN(c2ccc3nc(-c4c(N)c5cc(N)ccc5[nH]c4=O)[nH]c3c2)CC1
IC50 [1]: 0.007 µM | IC50 [2]: 0.007 µM | IC50 [3]: 0.019 µM | EC50 [4]: 0.017 µM

Structure (SMILES): CN1CCN(c2ccc3nc(-c4c(N)c5ccc(F)cc5[nH]c4=O)[nH]c3c2)CC1
IC50 [1]: 0.0004 µM | IC50 [2]: 0.003 µM | IC50 [3]: 0.014 µM | EC50 [4]: 0.034 µM

Structure (SMILES): CN1CCN(C(=O)c2ccc3[nH]c(-c4c(N)c5ccccc5[nH]c4=O)nc3c2)CC1
IC50 [1]: 0.0009 µM | IC50 [2]: 0.01 µM | IC50 [3]: 0.026 µM | EC50 [4]: 0.045 µM

Structure (SMILES): CN1CCN(c2ccc3[nH]c(-c4c(N)c5c(F)cc(F)cc5[nH]c4=O)nc3c2)CC1
IC50 [1]: 0.005 µM | IC50 [2]: 0.03 µM | IC50 [3]: 0.13 µM | EC50 [4]: 0.08 µM

Structure (SMILES): CN1CCN(c2ccc3nc(-c4c(N)c5cc(F)c(N(C)C)cc5[nH]c4=O)[nH]c3c2)CC1
IC50 [1]: 0.03 µM | IC50 [2]: 1.8 µM | IC50 [3]: 5.3 µM | EC50 [4]: 3.3 µM

Structure (SMILES): CN1CCN(c2cccc3[nH]c(=O)c(-c4nc5ccccc5[nH]4)c(N)c23)CC1
IC50 [1]: 0.0003 µM | IC50 [2]: 0.001 µM | IC50 [3]: 0.017 µM | EC50 [4]: 0.34 µM

Structure (SMILES): CN1CCN(c2ccc3[nH]c(-c4c(N)c5cc(F)c(F)cc5[nH]c4=O)nc3c2)CC1
IC50 [1]: 0.003 µM | IC50 [2]: 0.11 µM | IC50 [3]: 0.19 µM | EC50 [4]: 0.48 µM

Structure (SMILES): CN1CCCN(c2ccc3[nH]c(-c4c(N)c5ccccc5[nH]c4=O)nc3c2)CC1
IC50 [1]: 0.005 µM | IC50 [2]: 0.02 µM | IC50 [3]: 0.066 µM | EC50 [4]: 0.025 µM

Structure (SMILES): O=c1[nH]c2ccccc2c(NCC2CCNCC2)c1-c1nc2ccccc2[nH]1
IC50 [1]: 0.0009 µM | IC50 [2]: 0.55 µM | IC50 [3]: 0.94 µM | EC50 [4]: 0.1 µM

Structure (SMILES): CN1CCN(c2ccc3nc(-c4c(N)c5cc(C(=O)NCc6ccccc6)ccc5[nH]c4=O)[nH]c3c2)CC1
IC50 [1]: 0.0001 µM | IC50 [2]: 0.01 µM | IC50 [3]: 0.05 µM | EC50 [4]: 0.12 µM

Structure (SMILES): Nc1c(-c2nc3ccc(OCCN4CCOCC4)cc3[nH]2)c(=O)[nH]c2ccccc12
IC50 [1]: 0.005 µM | IC50 [2]: 0.02 µM | IC50 [3]: 0.066 µM | EC50 [4]: 0.037 µM

Structure (SMILES): CN1CCN(c2ccc3[nH]c(-c4c(N)c5cccc(F)c5[nH]c4=O)nc3c2)CC1
IC50 [1]: 0.014 µM | IC50 [2]: 0.19 µM | IC50 [3]: 0.56 µM | EC50 [4]: 0.42 µM
